In patent publication US20080107757A1, “Sophorae Subprostratae Radix Extract for Prevention and Treatment of Respiratory Diseases” (priority 2004, published 2008):

Tests used:
guinea pig = assay: Antitussive effect, citric acid aerosol-induced cough; type: in vivo
Method: The method used was the method by M. H. Boskabady et al. (journal of Entnopharmacology 97, 2005, 79-82) with a bit of modifications.
A Hartley male guinea pig (450˜500 g, SLC, Japan) was orally administered with a drug. 1 hr after the administration, the guinea pig was placed in Double Chamber Plethysmograph Box (HSE, Germany) installed with plethysmometer and stabilized by allowing a 5 min of time for adaptation. After the stabilization, 0.6M citric acid was sprayed to the guinea pig for 7 min in the form of aerosol by preparing a compressed air under high pressure. The guinea pig was observed continuously by a trained observer and the number of coughs induced by the above spray of citric acid aerosol was measured by using a microphone and a speaker. The coughs were distinguished from a normal sneeze due to its particular signs such as a peculiar and high sound with its mouth open, movement of abdomen, and an instant change in air flow.

[1] = system: Phosphodiesterase 4 (PDE4); assay: Inhibition of phosphodiesterase 4 (PDE4) activity, human U937 cells, [3H]cAMP; type: biochemical; conditions: positive control
Method: Human U937 cells were stabilized in the mixed solution comprising 50 mM Tris-HCl and 5 mM MgCl2 (pH 7.5) at 25° C. Sophorae Radix extract and 1.01 μM of ([3H]cAMP+cAMP) as a base material were combined together and allowed to react for 20 min to produce adenosine.

sensitized guinea pig = assay: Inhibition of airway contraction (in vivo), OVA aerosol bronchospasm, airway resistance by plethysmograph
Method: To evaluate the inhibitory effect of Sophorae Radix extract prepared in Preparation Examples 1-3 against airway contraction, experiments were performed as described below by exposing antigens to a sensitized guinea pig and the results are shown in Table 2.
A Hartely male guinea pig(400-450 g, SLC, Japan) was sensitized by intravenously injecting 1.5 mL/kg of anti-ovalbumin anti-serum. 48 hrs after the sensitization, the guinea pig was administered with a drug orally. In 30 min, the guinea pig was pretreated by injecting 10 mg/kg of pyrilamine maleate, 10 mg/kg of indomethacin, and 0.1 mg/kg of propranolol subcutaneously, respectively. Then, the guinea pig was placed in Double Chamber Plethysmograph Box(HSE, Germany) installed with plethysmometer for measuring various respiratory indices and measured basic airway resistance values. 30 min after the pretreatment, 1% OVA was nebulized for 2 min in the form of aerosol by preparing a compressed air under high pressure. Airway resistance was measured for 30 min as an indicator of bronchospasm.

## COc1ccc2c(c1)[C@]13CCCC[C@@H]1[C@H](C2)N(C)CC3 [Dextromethorphan]
Guinea pig; 50 mg/kg oral
  Cough: 11.1 ± 2.5 (N = 7)
  Inhibition (%) of cough: 9%
Guinea pig; 100 mg/kg oral
  Cough: 4.5 ± 2.6 (N = 10)
  Inhibition (%) of cough: 63%

## CC(C)Cn1c(=O)n(C)c(=O)c2[nH]cnc21 [IBMX, 3-isobutyl-1-methylxanthine]
[1]
  IC50: 20.7 µM

## CC(C)(O)c1ccccc1CC[C@@H](SCC1(CC(=O)O)CC1)c1cccc(/C=C/c2ccc3ccc(Cl)cc3n2)c1 [Montelukast]
Sensitized guinea pig; 10 mg/kg oral
  Inhibition Rate of Bronchospasm (%): 45%
Sensitized guinea pig; 40 mg/kg oral
  Inhibition Rate of Bronchospasm (%): 75%
Guinea pig; 10 mg/kg oral
  Cough: 11.1 ± 2.9 (N = 9)
  Inhibition (%) of cough: 10%
Guinea pig; 40 mg/kg oral
  Cough: 11.4 ± 4.3 (N = 7)
  Inhibition (%) of cough: 7%
